Data from US8735364B2, “Antisense modulation of apolipoprotein B expression” (Genzyme Corporation, priority 2001, dated 2014).
Oligonucleotides are written 5' to 3', each unit as a sugar letter and its base; * is a phosphorothioate linkage, no mark a phosphodiester; rarer units and linkages stand in square brackets, end groups in braces. Plain capitals give the bases only. e = 2'-O-(2-methoxyethyl) (MOE); [5mC] = 5-methylcytosine; d = 2'-deoxy (DNA)

System: mouse apolipoprotein B mRNA
Test: Inhibition of mouse apolipoprotein B mRNA levels in primary hepatocytes, quantitative real-time PCR
Format: cell-based
Parameters: %INHIB of mouse apolipoprotein B mRNA levels: concentration or dose not given beside the values
Conditions: for %INHIB of mouse apolipoprotein B mRNA levels: averages from two experiments
Method: Primary mouse hepatocytes were prepared from CD-1 mice purchased from Charles River Labs (Wilmington, Mass.) and were routinely cultured in Hepatoyte Attachment Media (Gibco) supplemented with 10% Fetal Bovine Serum (Gibco/Life Technologies, Gaithersburg, Md.), 250 nM dexamethasone (Sigma), and 10 nM bovine insulin (Sigma). Cells were seeded into 96-well plates (Falcon-Primaria #3872) at a density of 10000 cells/well for use in RT-PCR analysis.
When cells reached 80% confluency, they were treated with oligonucleotide. For cells grown in 96-well plates, wells were washed once with 200 μL OPTI-MEM™-1 reduced-serum medium (Gibco BRL) and then treated with 130 μL of OPTI-MEM™-1 containing 3.75 μg/mL LIPOFECTIN™ (Gibco BRL) and the desired concentration of oligonucleotide. After 4-7 hours of treatment, the medium was replaced with fresh medium. Cells were harvested 16-24 hours after oligonucleotide treatment.
Quantitation of apolipoprotein B mRNA levels was determined by real-time quantitative PCR using the ABI PRISM™ 7700 Sequence Detection System (PE-Applied Biosystems, Foster City, Calif.) according to manufacturer's instructions. This is a closed-tube, non-gel-based, fluorescence detection system which allows high-throughput quantitation of polymerase chain reaction (PCR) products in real-time. As opposed to standard PCR, in which amplification products are quantitated after the PCR is completed, products in real-time quantitative PCR are quantitated as they accumulate. This is accomplished by including in the PCR reaction an oligonucleotide probe that anneals specifically between the forward and reverse PCR primers, and contains two fluorescent dyes. A reporter dye (e.g., JOE, FAM, or VIC, obtained from either Operon Technologies Inc., Alameda, Calif. or PE-Applied Biosystems, Foster City, Calif.) is attached to the 5′ end of the probe and a quencher dye (e.g., TAMRA, obtained from either Operon Technologies Inc., Alameda, Calif. or PE-Applied Biosystems, Foster City, Calif.) is attached to the 3′ end of the probe. When the probe and dyes are intact, reporter dye emission is quenched by the proximity of the 3′ quencher dye. During amplification, annealing of the probe to the target sequence creates a substrate that can be cleaved by the 5′-exonuclease activity of Taq polymerase. […] With each cycle, additional reporter dye molecules are cleaved from their respective probes, and the fluorescence intensity is monitored at regular intervals by laser optics built into the ABI PRISM™ 7700 Sequence Detection System. In each assay, a series of parallel reactions containing serial dilutions of mRNA from untreated control samples generates a standard curve that is used to quantitate the percent inhibition after antisense oligonucleotide treatment of test samples.
PCR reagents were obtained from PE-Applied Biosystems, Foster City, Calif. RT-PCR reactions were carried out by adding 25 μL PCR cocktail (1× TAQMAN™ buffer A, 5.5 mM MgCl2, 300 μM each of DATP, dCTP and dGTP, 600 μM of dUTP, 100 nM each of forward primer, reverse primer, and probe, 20 Units RNAse inhibitor, 1.25 Units AMPLITAQ GOLD™, and 12.5 Units MuLV reverse transcriptase) to 96 well plates containing 25 μL total RNA solution. The RT reaction was carried out by incubation for 30 minutes at 48° C. Following a 10 minute incubation at 95° C. to activate the AMPLITAQ GOLD™, 40 cycles of a two-step PCR protocol were carried out: 95° C. for 15 seconds (denaturation) followed by 60° C. for 1.5 minutes (annealing/extension).
Gene target quantities obtained by real time RT-PCR are normalized using either the expression level of GAPDH, a gene whose expression is constant, or by quantifying total RNA using RiboGreen™ (Molecular Probes, Inc. Eugene, Oreg.). GAPDH expression is quantified by real time RT-PCR, by being run simultaneously with the target, multiplexing, or separately. Total RNA is quantified using RiboGreen™ RNA quantification reagent from Molecular Probes. […]

Substance | %INHIB of mouse apolipoprotein B mRNA levels | further results
147475 (antisense eA*eT*eT*eG*eT*dA*dT*dG*dT*dG*dA*dG*dA*dG*dG*eT*eG*eA*eG*eG) [compound 147475] | 79% | –
147476 (antisense eG*eA*eG*eG*eA*dG*dA*dT*dT*dG*dG*dA*dT*d[5mC]*dT*eT*eA*eA*eG*eG) [compound 147476] | 13% | –
147478 (antisense eT*e[5mC]*e[5mC]*eA*eG*dG*dA*dA*dT*dT*dG*dA*dG*d[5mC]*dT*eT*eG*eT*eG*e[5mC]) [compound 147478] | 78% | –
147480 (antisense eT*e[5mC]*eT*e[5mC]*eA*d[5mC]*d[5mC]*d[5mC]*dT*d[5mC]*dA*dT*dG*d[5mC]*dT*e[5mC]*e[5mC]*eA*eT*eT) [compound 147480] | 54% | –
147481 (antisense eT*eG*eA*e[5mC]*eT*dG*dT*d[5mC]*dA*dA*dG*dG*dG*dT*dG*eA*eG*e[5mC]*eT*eG) [compound 147481] | 24% | –
147482 (antisense eG*eT*e[5mC]*e[5mC]*eA*dG*d[5mC]*d[5mC]*dT*dA*dG*dG*dA*dA*d[5mC]*eA*e[5mC]*eT*e[5mC]*eA) [compound 147482] | 59% | –
147483 (antisense eA*eT*eG*eT*e[5mC]*dA*dA*dT*dG*d[5mC]*d[5mC]*dA*d[5mC]*dA*dT*eG*eT*e[5mC]*e[5mC]*eA) [compound 147483] | – | Percent Inhibition of mouse apolipoprotein B mRNA levels (50 nM): 56%; Percent Inhibition of mouse apolipoprotein B mRNA levels (150 nM): 88%; Percent Inhibition of mouse apolipoprotein B mRNA levels (300 nM): 89%
147484 (antisense eT*eT*e[5mC]*eA*eT*d[5mC]*d[5mC]*dG*dA*dG*dA*dA*dG*dT*dT*eG*eG*eG*eA*e[5mC]) [compound 147484] | 49% | –
147485 (antisense eA*eT*eT*eT*eG*dG*dG*dA*d[5mC]*dG*dA*dA*dT*dG*dT*eA*eT*eG*e[5mC]*e[5mC]) [compound 147485] | 64% | –
147487 (antisense eT*eT*e[5mC]*e[5mC]*e[5mC]*dA*dG*dT*d[5mC]*dA*dG*d[5mC]*dT*dT*dT*eA*eG*eT*eG*eG) [compound 147487] | 73% | –
147488 (antisense eA*eG*e[5mC]*eT*eT*dG*d[5mC]*dT*dT*dG*dT*dT*dG*dG*dG*e[5mC]*eA*e[5mC]*eG*eG) [compound 147488] | 72% | –
147489 (antisense e[5mC]*e[5mC]*eT*eA*eT*dA*d[5mC]*dT*dG*dG*d[5mC]*dT*dT*d[5mC]*dT*eA*eT*eG*eT*eT) [compound 147489] | 5% | –
147493 (antisense eG*e[5mC]*eT*eT*e[5mC]*dA*dT*dT*dA*dT*dA*dG*dG*dA*dG*eG*eT*eG*eG*eT) [compound 147493] | 41% | –
147494 (antisense eA*e[5mC]*eA*eA*e[5mC]*dT*dG*dG*dG*dA*dT*dA*dG*dT*dG*eT*eA*eG*e[5mC]*e[5mC]) [compound 147494] | 84% | –
147495 (antisense eG*eT*eT*eA*eG*dG*dA*d[5mC]*d[5mC]*dA*dG*dG*dG*dA*dT*eT*eG*eT*eG*eA) [compound 147495] | 0% | –
147496 (antisense eA*e[5mC]*e[5mC]*eA*eT*dG*dG*dA*dA*dA*dA*d[5mC]*dT*dG*dG*e[5mC]*eA*eA*e[5mC]*eT) [compound 147496] | 19% | –
147498 (antisense eT*eG*eG*eG*e[5mC]*dA*dA*d[5mC]*dG*dA*dT*dA*dT*d[5mC]*dT*eG*eA*eT*eT*eG) [compound 147498] | 0% | –

Substance | %INHIB of mouse apolipoprotein B mRNA levels | further results
147499 (antisense e[5mC]*eT*eG*e[5mC]*eA*dG*dG*dG*d[5mC]*dG*dT*d[5mC]*dA*dG*dT*eG*eA*e[5mC]*eA*eA) [compound 147499] | 29% | –
147501 (antisense e[5mC]*eT*eT*eG*eG*dT*dT*dA*dA*dA*d[5mC]*dT*dA*dA*dT*eG*eG*eT*eG*e[5mC]) [compound 147501] | 18% | –
147502 (antisense eA*eT*eG*eG*eG*dA*dG*d[5mC]*dA*dT*dG*dG*dA*dG*dG*eT*eT*eG*eG*e[5mC]) [compound 147502] | 16% | –
147503 (antisense eA*eA*eT*eG*eG*dA*dT*dG*dA*dT*dG*dA*dA*dA*d[5mC]*eA*eG*eT*eG*eG) [compound 147503] | 26% | –
147505 (antisense eG*eG*eA*eA*eG*dT*dG*dA*dG*dA*d[5mC]*dT*dT*dT*d[5mC]*eT*eA*eA*eG*e[5mC]) [compound 147505] | 76% | –
147506 (antisense eA*eG*eG*eA*eA*dG*dG*dA*dA*d[5mC]*dT*d[5mC]*dT*dT*dG*eA*eT*eA*eT*eT) [compound 147506] | 58% | –
147507 (antisense eA*eT*eT*eG*eG*d[5mC]*dT*dT*d[5mC]*dA*dT*dT*dG*dG*d[5mC]*eA*eA*e[5mC]*eA*e[5mC]) [compound 147507] | 81% | –
147759 (antisense eA*eG*eG*eT*eG*dA*dG*dG*dA*dA*dG*dT*dT*dG*dG*eA*eA*eT*eT*e[5mC]) [compound 147759] | 19% | –
147761 (antisense eG*eT*eT*e[5mC]*eA*dT*dG*dG*dA*dT*dT*d[5mC]*d[5mC]*dT*dT*e[5mC]*eA*eG*eG*eA) [compound 147761] | 45% | –
147762 (antisense eA*eT*eG*e[5mC]*eT*d[5mC]*d[5mC]*dA*dT*dT*d[5mC]*dT*d[5mC]*dA*d[5mC]*eA*eT*eG*e[5mC]*eT) [compound 147762] | 46% | –
147763 (antisense eT*eG*e[5mC]*eG*eA*d[5mC]*dT*dG*dT*dG*dT*d[5mC]*dT*dG*dA*eT*eT*eT*e[5mC]*e[5mC]) [compound 147763] | 34% | –
147764 (antisense eG*eT*e[5mC]*e[5mC]*e[5mC]*dT*dG*dA*dA*dG*dA*dT*dG*dT*d[5mC]*eA*eA*eT*eG*e[5mC]) [compound 147764] | 97% | Percent Inhibition of mouse apolipoprotein B mRNA levels (50 nM): 48%; Percent Inhibition of mouse apolipoprotein B mRNA levels (150 nM): 84%; Percent Inhibition of mouse apolipoprotein B mRNA levels (300 nM): 90%
147765 (antisense eA*eG*eG*e[5mC]*e[5mC]*d[5mC]*dA*dG*dT*dT*d[5mC]*d[5mC]*dA*dT*dG*eA*e[5mC]*e[5mC]*e[5mC]*eT) [compound 147765] | 59% | –
147766 (antisense eG*eG*eA*eG*e[5mC]*d[5mC]*d[5mC]*dA*d[5mC]*dG*dT*dG*d[5mC]*dT*dG*eA*eG*eA*eT*eT) [compound 147766] | 59% | –
147767 (antisense e[5mC]*eG*eT*e[5mC]*e[5mC]*dT*dT*dG*dA*dG*d[5mC]*dA*dG*dT*dG*e[5mC]*e[5mC]*e[5mC]*eG*eA) [compound 147767] | 5% | –
147768 (antisense e[5mC]*e[5mC]*e[5mC]*eA*eT*dA*dT*dG*dG*dA*dG*dA*dA*dA*dT*e[5mC]*e[5mC]*eT*eT*e[5mC]) [compound 147768] | 24% | –
